Laboratory results as given in ChEMBL document CHEMBL1201862, “PubChem BioAssay data set” (2004).
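Compound exposure: 48 hours, 5 concentrations, 96-well plates. Here, GI50 denotes the concentration required for 50% inhibition of growth.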 Active and inactive are the calls of the source. Cut-off read from the data, not from the text of the source: active = GI50 up to about 1.1 µM and inactive = higher.

Columns and labels:
Assay in all cases: NCI tumour cell line growth inhibition, 48 h
[1] = tested on: A549
[2] = tested on: HCT-116
[3] = tested on: SN12C
[4] = tested on: NCI-H23
[5] = tested on: MOLT-4
[6] = tested on: KM12
[7] = tested on: SNB-19
[8] = tested on: PC-3
[9] = tested on: CAKI-1
[10] = tested on: HCC 2998
[11] = tested on: CCRF-CEM
[12] = tested on: SNB-75
[13] = tested on: MDA-MB-435
[14] = tested on: HCT-15
[15] = tested on: OVCAR-3
[16] = tested on: HT-29
[17] = tested on: 786-0
[18] = tested on: T47D
[19] = tested on: NCI-H522
[20] = tested on: NCI-H226
[21] = tested on: SF-539
[22] = tested on: NCI-H460
[23] = tested on: SF-295
[24] = tested on: K562
[25] = tested on: SW-620
[26] = tested on: MDA-N
[27] = tested on: NCI/ADR-RES
[28] = tested on: Hs-578T
[29] = tested on: UACC-257
[30] = tested on: IGROV-1
[31] = tested on: RXF 393
[32] = tested on: TK-10
[33] = tested on: DU-145
[34] = tested on: COLO 205
[35] = tested on: SR
[36] = tested on: Malme-3M
[37] = tested on: OVCAR-8
[38] = tested on: ACHN
[39] = tested on: RPMI-8226
[40] = tested on: HOP-62
[41] = tested on: SK-MEL-5
[42] = tested on: UO-31
[43] = tested on: U-251
[44] = tested on: MDA-MB-231
[45] = tested on: MCF7
[46] = tested on: SF-268
[47] = tested on: LOX IMVI
[48] = tested on: EKVX
[49] = tested on: HL-60
[50] = tested on: UACC-62
[51] = tested on: SK-MEL-28
[52] = tested on: BT-549
[53] = tested on: OVCAR-4
[54] = tested on: M14
[55] = tested on: OVCAR-5
[56] = tested on: HOP-92
[57] = tested on: SK-MEL-2
[58] = tested on: A498
[59] = tested on: SK-OV-3

CC1(C)C[C@H](O)[C@H](O)[C@]23C(=O)O[C@H](O)[C@H]2C(C=O)=CC[C@@H]13
GI50 [1]: > 100 µM (inactive) | GI50 [2]: > 100 µM (inactive) | GI50 [3]: > 100 µM (inactive) | GI50 [4]: > 100 µM (inactive) | GI50 [5]: > 100 µM (inactive) | GI50 [6]: > 100 µM (inactive) | GI50 [7]: > 100 µM (inactive) | GI50 [8]: > 100 µM (inactive) | GI50 [9]: > 100 µM (inactive) | GI50 [10]: > 100 µM (inactive) | GI50 [11]: > 100 µM (inactive) | GI50 [12]: > 100 µM (inactive) | GI50 [13]: > 100 µM (inactive) | GI50 [14]: > 100 µM | GI50 [15]: > 100 µM (inactive) | GI50 [16]: > 100 µM (inactive) | GI50 [17]: > 100 µM (inactive) | GI50 [18]: 73.1 µM (inactive) | GI50 [19]: > 100 µM (inactive) | GI50 [20]: > 100 µM (inactive) | GI50 [21]: > 100 µM (inactive) | GI50 [22]: > 100 µM (inactive) | GI50 [23]: > 100 µM (inactive) | GI50 [24]: > 100 µM (inactive) | GI50 [25]: > 100 µM (inactive) | GI50 [26]: > 100 µM (inactive) | GI50 [27]: > 100 µM (inactive) | GI50 [28]: > 100 µM (inactive) | GI50 [29]: > 100 µM (inactive) | GI50 [30]: > 100 µM (inactive) | GI50 [31]: > 100 µM (inactive) | GI50 [32]: > 100 µM (inactive) | GI50 [33]: > 100 µM (inactive) | GI50 [34]: > 100 µM (inactive) | GI50 [35]: > 100 µM (inactive) | GI50 [36]: > 100 µM (inactive) | GI50 [37]: > 100 µM (inactive) | GI50 [38]: > 100 µM (inactive) | GI50 [39]: > 100 µM (inactive) | GI50 [40]: > 100 µM (inactive) | GI50 [41]: > 100 µM (inactive) | GI50 [42]: > 100 µM (inactive) | GI50 [43]: 96.2 µM (inactive) | GI50 [44]: > 100 µM (inactive) | GI50 [45]: > 100 µM (inactive) | GI50 [46]: > 100 µM (inactive) | GI50 [47]: > 100 µM (inactive) | GI50 [48]: > 100 µM (inactive) | GI50 [49]: > 100 µM (inactive) | GI50 [50]: 58.9 µM (inactive) | GI50 [51]: > 100 µM (inactive) | GI50 [52]: > 100 µM (inactive)

C=CCN1CCC(OC(=O)C(O)(C#CC)C2CCCC2)CC1 (configuration not stated)
GI50 [1]: > 100 µM (inactive) | GI50 [53]: > 100 µM (inactive) | GI50 [2]: > 100 µM (inactive) | GI50 [3]: > 100 µM (inactive) | GI50 [4]: > 100 µM (inactive) | GI50 [5]: > 100 µM (inactive) | GI50 [6]: > 100 µM (inactive) | GI50 [7]: > 100 µM (inactive) | GI50 [8]: > 100 µM (inactive) | GI50 [9]: > 100 µM (inactive) | GI50 [10]: > 100 µM (inactive) | GI50 [12]: > 77.3 µM (inactive) | GI50 [13]: > 100 µM (inactive) | GI50 [54]: > 100 µM (inactive) | GI50 [14]: > 100 µM | GI50 [15]: > 100 µM (inactive) | GI50 [16]: > 100 µM (inactive) | GI50 [17]: > 100 µM (inactive) | GI50 [18]: > 100 µM (inactive) | GI50 [19]: > 100 µM (inactive) | GI50 [20]: > 100 µM (inactive) | GI50 [55]: > 100 µM (inactive) | GI50 [21]: > 100 µM (inactive) | GI50 [22]: > 100 µM (inactive) | GI50 [23]: > 100 µM (inactive) | GI50 [56]: > 100 µM (inactive) | GI50 [25]: > 100 µM (inactive) | GI50 [26]: > 100 µM (inactive) | GI50 [27]: > 100 µM (inactive) | GI50 [28]: > 100 µM (inactive) | GI50 [29]: > 100 µM (inactive) | GI50 [57]: > 100 µM (inactive) | GI50 [30]: > 100 µM (inactive) | GI50 [31]: > 100 µM (inactive) | GI50 [32]: > 100 µM (inactive) | GI50 [33]: > 100 µM (inactive) | GI50 [34]: > 100 µM (inactive) | GI50 [36]: > 100 µM (inactive) | GI50 [37]: > 100 µM (inactive) | GI50 [38]: > 100 µM (inactive) | GI50 [39]: > 100 µM (inactive) | GI50 [40]: > 100 µM (inactive) | GI50 [41]: > 100 µM (inactive) | GI50 [42]: > 100 µM (inactive) | GI50 [43]: > 100 µM (inactive) | GI50 [44]: > 100 µM (inactive) | GI50 [58]: > 100 µM (inactive) | GI50 [45]: > 100 µM (inactive) | GI50 [46]: > 100 µM (inactive) | GI50 [47]: > 100 µM (inactive) | GI50 [48]: > 100 µM (inactive) | GI50 [50]: > 100 µM (inactive) | GI50 [51]: > 100 µM (inactive) | GI50 [59]: > 100 µM (inactive) | GI50 [52]: > 100 µM (inactive)
